Assay results published in ChEMBL document CHEMBL1201862, “PubChem BioAssay data set” (2004).
Several values for one entry are separate records, joined by “and”; a condition that tells them apart may be missing. Identical values can stand only once. Activity calls are given as the source filed them.

Columns and labels:
[1] = inhibitors of HIV Env-driven cell fusion, dose response, cherry-pick (AID 652057); format: functional, cell-based
[2] = CEM21 lymphoblast cell cytotoxicity, dose response, cytotoxicity control for viral fusion inhibitor project, CellTiter-Glo luminescence, cherry-picked (AID 652042); format: functional, cell-based;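 also: potency for signal decrease meaning cytotoxicity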
[3] = target: T1, Ubiquitin-conjugating enzyme E2 N (Homo sapiens, UniProt P61088); format: functional;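 also: Dose-response confirmation in a TR-FRET assay detecting UBC13-driven polyubiquitin chain formation, inhibition measured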
T1 sequence (P61088 whole entry): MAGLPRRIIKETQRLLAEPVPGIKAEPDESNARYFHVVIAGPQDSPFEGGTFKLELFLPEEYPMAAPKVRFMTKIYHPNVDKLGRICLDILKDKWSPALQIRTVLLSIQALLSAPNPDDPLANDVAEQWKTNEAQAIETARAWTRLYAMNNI

[4] = target: T2, RNA-binding protein pos-1 (Caenorhabditis elegans, UniProt G5EF15); assay: inhibitors of POS-1/mex-3 RNA binding, dose response, biochemical, fluorescence polarization (AID 1964);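 also: purified POS-1 fused to maltose binding protein made in E. coli; potency of compounds blocking POS-1 binding to fluorescent RNA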
T2 sequence (G5EF15 whole entry): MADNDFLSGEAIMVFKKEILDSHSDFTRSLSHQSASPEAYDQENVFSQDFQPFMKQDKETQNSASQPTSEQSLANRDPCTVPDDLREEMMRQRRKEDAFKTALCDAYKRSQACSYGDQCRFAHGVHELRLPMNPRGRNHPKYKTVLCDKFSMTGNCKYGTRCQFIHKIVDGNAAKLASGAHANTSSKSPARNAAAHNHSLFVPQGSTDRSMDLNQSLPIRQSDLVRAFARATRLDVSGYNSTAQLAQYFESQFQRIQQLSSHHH

[5] = inhibitors of intracellular T. cruzi replication, confirmation, NIH3T3 host cells, beta-gal luminescence (AID 2044); format: functional, cell-based;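 also: intracellular parasites grown in NIH/3T3 mouse fibroblasts as host cells; luminescent beta-galactosidase reporter signal from transgenic T. cruzi replicating inside host cells; inhibitors lower the luminescence signal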
[6] = target: Phospholipase A2 (Homo sapiens, UniProt P04054); format: functional;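 also: confirmatory dose-response counterscreen on phospholipase A2, testing hits that came from an ultra-high-throughput screen for ATG4B inhibitors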
[7] = Shn3 3'UTR reporter inhibitors, dose response, cell-based, Clone20 osteoblasts, firefly luciferase, cherry-picked (AID 624132); format: functional;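 also: firefly luciferase luminescence from reporter carrying the Shn3 3'UTR in osteoblasts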
[8] = control 3'UTR Renilla luciferase suppression, dose response, counter-screen for Shn3 inhibitor project, cell-based, Clone20-Shn3RL, cherry-picked (AID 624133); format: functional
[9] = target: Fatty acid synthase (Homo sapiens, UniProt P49327); assay: FAS thioesterase domain inhibitors, dose response, biochemical, endpoint fluorescence intensity, uHTS hits (AID 624327); format: functional;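 also: fluorescence from hydrolysis of an O-methyl fluorescein acyl ester substrate by the enzyme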
[10] = target: Photoreceptor-specific nuclear receptor (Homo sapiens, UniProt Q9Y5X4); format: functional, cell-based;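 also: CHO-S cells with Gal4-NCOR and VP16-NR2E3 two-hybrid luciferase reporter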
[11] = target: T3, Hexokinase HKDC1 (Homo sapiens, UniProt Q2TB90); assay: HKDC1 hexokinase activators, dose response, biochemical, W721R variant (AID 504730); format: functional
T3 sequence (Q2TB90 whole entry): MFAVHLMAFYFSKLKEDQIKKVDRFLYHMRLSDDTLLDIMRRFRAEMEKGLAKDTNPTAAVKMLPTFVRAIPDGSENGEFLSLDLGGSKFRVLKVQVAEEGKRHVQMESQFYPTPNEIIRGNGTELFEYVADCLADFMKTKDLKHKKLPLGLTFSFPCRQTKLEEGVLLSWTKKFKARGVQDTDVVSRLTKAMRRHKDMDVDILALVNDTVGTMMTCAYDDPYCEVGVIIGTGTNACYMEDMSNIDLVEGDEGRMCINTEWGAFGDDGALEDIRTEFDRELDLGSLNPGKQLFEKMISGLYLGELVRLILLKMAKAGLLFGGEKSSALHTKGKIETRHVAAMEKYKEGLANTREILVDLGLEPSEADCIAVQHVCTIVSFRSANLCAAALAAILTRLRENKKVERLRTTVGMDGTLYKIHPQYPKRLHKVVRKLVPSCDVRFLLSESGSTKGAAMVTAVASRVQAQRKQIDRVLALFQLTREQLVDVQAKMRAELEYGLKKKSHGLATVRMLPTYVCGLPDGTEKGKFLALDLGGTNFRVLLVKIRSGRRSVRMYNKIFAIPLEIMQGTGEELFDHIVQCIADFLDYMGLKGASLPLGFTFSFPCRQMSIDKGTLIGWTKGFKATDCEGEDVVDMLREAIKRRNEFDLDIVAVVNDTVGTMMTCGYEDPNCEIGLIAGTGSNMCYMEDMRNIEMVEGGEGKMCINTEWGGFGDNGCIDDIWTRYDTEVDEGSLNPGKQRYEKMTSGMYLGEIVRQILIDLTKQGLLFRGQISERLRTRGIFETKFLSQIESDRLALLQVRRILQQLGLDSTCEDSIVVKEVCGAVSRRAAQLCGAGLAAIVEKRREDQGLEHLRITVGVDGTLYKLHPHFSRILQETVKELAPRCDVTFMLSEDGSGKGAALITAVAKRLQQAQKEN

[12] = target: T4, Hexokinase-1 (Homo sapiens, UniProt P19367); assay: hexokinase 1 activators, dose response, selectivity assay for HKDC1 activator project, biochemical (AID 504762); format: functional
T4 sequence (P19367 whole entry): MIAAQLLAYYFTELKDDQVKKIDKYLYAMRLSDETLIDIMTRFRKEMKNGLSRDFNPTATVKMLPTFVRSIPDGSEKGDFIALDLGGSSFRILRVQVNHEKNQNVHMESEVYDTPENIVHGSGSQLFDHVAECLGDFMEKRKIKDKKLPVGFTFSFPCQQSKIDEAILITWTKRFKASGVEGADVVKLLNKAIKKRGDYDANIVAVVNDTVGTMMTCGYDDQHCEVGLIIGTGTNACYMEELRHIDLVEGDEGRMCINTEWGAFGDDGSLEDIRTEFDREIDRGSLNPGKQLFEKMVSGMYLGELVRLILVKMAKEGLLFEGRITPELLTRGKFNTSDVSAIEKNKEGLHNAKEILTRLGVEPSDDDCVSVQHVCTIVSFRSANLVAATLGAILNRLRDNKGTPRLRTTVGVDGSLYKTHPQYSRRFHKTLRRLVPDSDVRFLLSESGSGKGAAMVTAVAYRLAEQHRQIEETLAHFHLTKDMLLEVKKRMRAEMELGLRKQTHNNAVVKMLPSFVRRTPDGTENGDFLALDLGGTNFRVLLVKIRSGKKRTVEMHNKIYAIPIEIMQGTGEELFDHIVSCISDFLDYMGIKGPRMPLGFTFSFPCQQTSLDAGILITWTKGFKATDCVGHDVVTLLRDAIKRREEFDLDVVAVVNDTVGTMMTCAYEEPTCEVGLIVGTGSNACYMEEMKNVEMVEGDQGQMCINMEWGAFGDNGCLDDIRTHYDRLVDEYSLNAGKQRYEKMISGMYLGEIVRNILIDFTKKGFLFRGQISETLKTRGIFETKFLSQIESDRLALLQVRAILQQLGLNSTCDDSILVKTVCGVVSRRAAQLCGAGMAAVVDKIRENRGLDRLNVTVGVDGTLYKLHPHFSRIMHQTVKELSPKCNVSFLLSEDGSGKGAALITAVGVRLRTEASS

[13] = growth suppression of PTEN-null colon cells, dose response, cell-based, HCT116 PTEN knockout (AID 1047); format: functional;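 also: HCT116 colon tumor cells with PTEN knocked out; cells exposed to compound for 60 hours before readout; potency for loss of cell viability measured by luminescence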
[14] = target: Peroxisome proliferator-activated receptor gamma/Nuclear receptor coactivator 2 (Homo sapiens, UniProt P37231); format: functional;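 also: agonist potency for raising coactivator recruitment to the receptor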
[15] = target: Tyrosyl-DNA phosphodiesterase 2 (Homo sapiens, UniProt O95551); assay: human TDP2 enzyme inhibitors, dose response, biochemical, epi absorbance, IC50 (AID 743297)

Sequence of Photoreceptor-specific nuclear receptor (Q9Y5X4 whole entry, the tested form may be a part): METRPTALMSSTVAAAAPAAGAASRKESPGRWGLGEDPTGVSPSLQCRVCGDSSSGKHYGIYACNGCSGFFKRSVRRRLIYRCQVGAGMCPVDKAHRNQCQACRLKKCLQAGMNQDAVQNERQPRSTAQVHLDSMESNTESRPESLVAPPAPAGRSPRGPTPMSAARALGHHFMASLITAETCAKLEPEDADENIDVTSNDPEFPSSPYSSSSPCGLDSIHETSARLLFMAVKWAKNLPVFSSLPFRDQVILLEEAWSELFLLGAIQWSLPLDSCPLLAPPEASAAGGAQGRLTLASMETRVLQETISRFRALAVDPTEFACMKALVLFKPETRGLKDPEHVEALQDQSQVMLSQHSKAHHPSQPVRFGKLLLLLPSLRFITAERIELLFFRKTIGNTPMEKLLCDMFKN
Sequence of Fatty acid synthase (P49327 whole entry, the tested form may be a part): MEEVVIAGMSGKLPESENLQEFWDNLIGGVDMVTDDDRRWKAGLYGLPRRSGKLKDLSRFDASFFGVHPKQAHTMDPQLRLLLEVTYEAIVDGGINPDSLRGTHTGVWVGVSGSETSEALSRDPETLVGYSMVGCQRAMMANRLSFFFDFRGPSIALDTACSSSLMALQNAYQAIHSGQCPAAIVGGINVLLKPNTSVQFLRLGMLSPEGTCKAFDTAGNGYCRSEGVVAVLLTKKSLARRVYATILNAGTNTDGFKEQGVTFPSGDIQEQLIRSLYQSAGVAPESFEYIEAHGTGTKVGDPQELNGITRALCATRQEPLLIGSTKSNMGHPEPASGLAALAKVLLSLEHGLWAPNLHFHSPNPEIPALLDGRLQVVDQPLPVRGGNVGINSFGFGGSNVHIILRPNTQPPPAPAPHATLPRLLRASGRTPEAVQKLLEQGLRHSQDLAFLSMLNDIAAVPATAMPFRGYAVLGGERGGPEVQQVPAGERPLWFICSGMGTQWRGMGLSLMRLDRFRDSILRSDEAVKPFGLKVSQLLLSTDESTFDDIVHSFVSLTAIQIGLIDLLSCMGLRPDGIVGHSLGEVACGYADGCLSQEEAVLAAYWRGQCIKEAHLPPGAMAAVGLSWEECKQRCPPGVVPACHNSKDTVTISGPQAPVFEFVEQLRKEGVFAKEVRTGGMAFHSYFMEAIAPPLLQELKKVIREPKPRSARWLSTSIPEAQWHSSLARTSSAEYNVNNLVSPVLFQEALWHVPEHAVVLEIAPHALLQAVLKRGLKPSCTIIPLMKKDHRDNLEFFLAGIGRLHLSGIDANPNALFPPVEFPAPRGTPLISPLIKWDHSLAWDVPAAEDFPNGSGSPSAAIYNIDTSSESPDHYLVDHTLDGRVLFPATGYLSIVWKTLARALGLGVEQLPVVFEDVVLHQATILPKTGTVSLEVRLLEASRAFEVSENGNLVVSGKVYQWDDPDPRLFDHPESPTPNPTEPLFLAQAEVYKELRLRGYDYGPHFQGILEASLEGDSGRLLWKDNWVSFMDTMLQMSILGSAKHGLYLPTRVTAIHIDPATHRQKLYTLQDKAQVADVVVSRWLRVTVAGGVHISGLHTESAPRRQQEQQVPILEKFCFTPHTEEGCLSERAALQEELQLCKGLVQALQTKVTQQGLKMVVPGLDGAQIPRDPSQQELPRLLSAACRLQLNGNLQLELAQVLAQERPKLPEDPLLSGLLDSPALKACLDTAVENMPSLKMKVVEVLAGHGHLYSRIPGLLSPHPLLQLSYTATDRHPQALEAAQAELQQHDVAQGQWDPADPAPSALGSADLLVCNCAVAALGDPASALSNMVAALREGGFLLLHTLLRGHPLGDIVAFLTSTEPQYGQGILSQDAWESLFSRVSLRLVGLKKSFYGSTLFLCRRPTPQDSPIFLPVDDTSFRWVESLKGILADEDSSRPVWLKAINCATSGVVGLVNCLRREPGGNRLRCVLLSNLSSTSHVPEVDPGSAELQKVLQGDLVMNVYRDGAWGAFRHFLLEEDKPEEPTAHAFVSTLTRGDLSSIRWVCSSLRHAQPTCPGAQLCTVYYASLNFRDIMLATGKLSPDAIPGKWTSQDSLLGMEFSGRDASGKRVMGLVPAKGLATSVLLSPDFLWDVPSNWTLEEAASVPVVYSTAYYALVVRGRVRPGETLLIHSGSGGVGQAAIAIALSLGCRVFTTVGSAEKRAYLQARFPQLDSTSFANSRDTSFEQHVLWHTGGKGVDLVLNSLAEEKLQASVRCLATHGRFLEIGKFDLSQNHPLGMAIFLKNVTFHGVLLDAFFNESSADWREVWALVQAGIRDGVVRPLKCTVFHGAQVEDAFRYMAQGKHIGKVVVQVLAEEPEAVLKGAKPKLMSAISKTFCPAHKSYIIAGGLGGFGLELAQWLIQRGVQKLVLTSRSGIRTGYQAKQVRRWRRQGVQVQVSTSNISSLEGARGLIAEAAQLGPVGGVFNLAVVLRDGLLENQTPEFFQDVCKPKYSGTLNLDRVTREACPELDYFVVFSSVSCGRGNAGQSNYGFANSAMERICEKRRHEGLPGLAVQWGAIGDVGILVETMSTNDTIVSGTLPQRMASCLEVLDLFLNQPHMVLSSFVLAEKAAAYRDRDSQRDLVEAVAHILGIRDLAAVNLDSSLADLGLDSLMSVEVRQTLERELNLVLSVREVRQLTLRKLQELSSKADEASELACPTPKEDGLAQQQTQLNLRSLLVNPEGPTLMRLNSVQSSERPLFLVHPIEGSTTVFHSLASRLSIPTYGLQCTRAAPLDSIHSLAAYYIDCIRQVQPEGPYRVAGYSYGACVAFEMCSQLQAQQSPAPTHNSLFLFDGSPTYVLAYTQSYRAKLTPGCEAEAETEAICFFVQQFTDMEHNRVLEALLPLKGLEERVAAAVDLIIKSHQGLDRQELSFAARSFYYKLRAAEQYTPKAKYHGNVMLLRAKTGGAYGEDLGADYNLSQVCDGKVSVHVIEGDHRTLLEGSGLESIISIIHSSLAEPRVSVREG
Sequence of Peroxisome proliferator-activated receptor gamma/Nuclear receptor coactivator 2 (P37231 whole entry): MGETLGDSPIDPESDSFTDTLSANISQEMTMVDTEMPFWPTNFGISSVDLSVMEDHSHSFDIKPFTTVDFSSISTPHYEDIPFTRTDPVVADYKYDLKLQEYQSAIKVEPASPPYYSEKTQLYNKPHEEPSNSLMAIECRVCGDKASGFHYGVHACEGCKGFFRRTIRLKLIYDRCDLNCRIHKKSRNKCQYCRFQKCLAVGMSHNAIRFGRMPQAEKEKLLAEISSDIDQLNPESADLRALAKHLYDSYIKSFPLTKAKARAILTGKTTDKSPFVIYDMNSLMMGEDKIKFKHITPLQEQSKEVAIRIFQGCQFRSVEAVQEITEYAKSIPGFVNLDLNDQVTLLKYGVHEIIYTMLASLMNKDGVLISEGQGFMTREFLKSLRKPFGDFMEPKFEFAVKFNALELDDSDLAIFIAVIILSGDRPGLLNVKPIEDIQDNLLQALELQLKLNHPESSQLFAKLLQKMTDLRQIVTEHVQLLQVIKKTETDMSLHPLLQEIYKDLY
Sequence of Peroxisome proliferator-activated receptor gamma/Nuclear receptor coactivator 2 (Q15596 whole entry, further chain): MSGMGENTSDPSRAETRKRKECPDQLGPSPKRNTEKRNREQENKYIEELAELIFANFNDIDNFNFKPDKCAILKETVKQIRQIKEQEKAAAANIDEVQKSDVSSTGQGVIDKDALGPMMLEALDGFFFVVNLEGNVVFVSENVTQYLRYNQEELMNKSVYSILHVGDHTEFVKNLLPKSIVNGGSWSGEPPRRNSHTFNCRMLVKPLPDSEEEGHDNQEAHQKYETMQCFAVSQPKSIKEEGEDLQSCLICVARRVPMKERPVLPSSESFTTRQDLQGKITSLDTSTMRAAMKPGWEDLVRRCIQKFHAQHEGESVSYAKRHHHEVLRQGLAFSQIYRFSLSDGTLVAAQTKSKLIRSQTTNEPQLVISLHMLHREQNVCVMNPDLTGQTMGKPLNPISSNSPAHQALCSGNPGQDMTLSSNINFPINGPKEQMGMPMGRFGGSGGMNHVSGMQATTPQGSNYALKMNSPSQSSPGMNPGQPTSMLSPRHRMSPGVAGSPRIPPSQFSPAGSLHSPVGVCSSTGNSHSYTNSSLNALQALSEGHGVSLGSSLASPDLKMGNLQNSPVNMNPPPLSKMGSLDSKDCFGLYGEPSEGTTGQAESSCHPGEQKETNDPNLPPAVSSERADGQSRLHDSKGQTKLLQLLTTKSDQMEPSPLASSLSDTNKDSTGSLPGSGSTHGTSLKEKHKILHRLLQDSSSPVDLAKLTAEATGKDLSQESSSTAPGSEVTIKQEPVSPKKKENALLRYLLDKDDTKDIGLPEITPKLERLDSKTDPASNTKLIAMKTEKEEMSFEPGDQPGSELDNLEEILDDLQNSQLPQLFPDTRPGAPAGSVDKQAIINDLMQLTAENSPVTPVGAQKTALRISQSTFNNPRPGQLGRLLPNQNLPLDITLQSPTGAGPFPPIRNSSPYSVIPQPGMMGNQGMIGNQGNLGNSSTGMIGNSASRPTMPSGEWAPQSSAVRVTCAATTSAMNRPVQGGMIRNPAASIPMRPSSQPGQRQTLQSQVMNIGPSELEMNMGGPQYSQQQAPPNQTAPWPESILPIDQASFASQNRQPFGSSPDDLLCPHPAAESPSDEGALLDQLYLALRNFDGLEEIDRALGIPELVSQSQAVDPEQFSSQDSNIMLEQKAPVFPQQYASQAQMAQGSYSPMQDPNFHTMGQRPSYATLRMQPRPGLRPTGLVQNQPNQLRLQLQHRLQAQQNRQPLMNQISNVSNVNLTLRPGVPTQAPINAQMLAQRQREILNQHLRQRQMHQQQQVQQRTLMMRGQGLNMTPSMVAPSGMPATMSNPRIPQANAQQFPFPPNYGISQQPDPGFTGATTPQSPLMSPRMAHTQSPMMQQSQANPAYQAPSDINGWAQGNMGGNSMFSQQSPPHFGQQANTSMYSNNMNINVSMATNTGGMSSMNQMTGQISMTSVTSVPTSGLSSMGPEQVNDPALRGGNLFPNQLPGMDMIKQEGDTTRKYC
Sequence of Phospholipase A2 (P04054 whole entry): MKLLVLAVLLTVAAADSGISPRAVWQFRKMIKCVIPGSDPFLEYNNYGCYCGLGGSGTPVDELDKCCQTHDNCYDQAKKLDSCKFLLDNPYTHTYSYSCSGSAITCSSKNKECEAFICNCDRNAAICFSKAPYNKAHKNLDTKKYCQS

SMILES: CCCCCCCCCCCCCCCCn1cc[n+](C)c1
- AC50 [1]: 22 µM (active)
- AC50 [2]: 5.2 µM (active)
- IC50 [3]: > 20 µM (inactive)
- EC50 [4]: > 300 µM (not active)
- EC50 [5]: < 100 nM (active) and 103 nM (active)
- IC50 [6]: 5.78 µM (active)

SMILES: O=C(Nc1ccccc1Cl)/C(Cl)=C(\Cl)[S+]([O-])c1ccccc1 (stereo not given)
- AC50 [7]: 0.438 µM (active)
- AC50 [8]: 5.77 µM (active)
- IC50 [9]: 4.66 µM (active)
- IC50 [10]: 2.92 µM (active)

SMILES: Cc1cc(C)nc(/N=c2/ssnc2Cl)c1
- EC50 [11]: 43.1 µM (inactive)
- EC50 [12]: 39.9 µM (inactive)
- EC50 [13]: 52.3 µM (active)
- EC50 [14]: > 79.4 µM (not active)

SMILES: O=C(NC1(O)C(=O)c2ccccc2C1=O)c1ccccc1
- IC50 [15]: 3.27 µM (active)
